According to ChEMBL document CHEMBL1133240, “Michael adducts of ascorbic acid as inhibitors of protein phosphatase 2A and inducers of apoptosis” (Bioorg Med Chem Lett, 2000):

Key:
HIT [1] = assay: Inhibitory concentration against casein dephosphorylation (casein is a substrate of PP-2A) by a HIT cell extract; format: functional, cell-free; conditions: Homo sapiens
HIT [2] = assay: Compound was evaluated for inhibitory effect against casein dephosphorylation (casein is a substrate of PP-2A) by a HIT cell extract at 1000 uM; Some inhibition; format: functional, cell-based; conditions: Homo sapiens
[3] = Compound was evaluated for inhibitory effect against casein dephosphorylation (casein is a substrate of PP-2A) by a HIT cell extract at 100 uM; format: functional; conditions: Homo sapiens
[4] = Lethal dose was evaluated in parental HIT cells; format: toxicity, cell-based; conditions: read-out: LC50 (the source's name)
[5] = Compound was evaluated for inhibitory effect against casein dephosphorylation (casein is a substrate of PP-2A) by a HIT cell extract with Okadaic acid (225 nM) or Cantharidic acid (100 uM); format: functional, cell-based, Homo sapiens
[6] = Lethal dose was evaluated in HIT 100R cells; format: toxicity, cell-based; conditions: human, read-out: LC50 (the source's name)
[7] = Compound was evaluated for inhibitory effect against casein dephosphorylation (casein is a substrate of PP-2A) by a HIT cell extract relative to cantharidic acid (100 uM); format: functional, cell-based, Homo sapiens

Work on `C=C1[C@@H](O)[C@@H]2O[C@]3(CC[C@H](/C=C/[C@@H](C)[C@@H]4CC(C)=C[C@@]5(O[C@H](C[C@@](C)(O)C(=O)O)CC[C@H]5O)O4)O3)CC[C@H]2O[C@@H]1[C@@H](O)C[C@H](C)[C@H]1O[C@@]2(CCCCO2)CC[C@H]1C` yielded a Concentration (HIT [1]) of 225 nM.
For `CCCCCCCCCCCCCCCC(=O)OC[C@@H](O)[C@H]1OC(=O)[C@]2(CCC(OC(C)C)O2)C1=O` (some centres undefined), the inhibition (HIT [2]) was “Some inhibition”.
Compound `CCCCCCCCCCCCCCCC(=O)OC[C@@H](O)[C@H]1OC(=O)[C@]2(O)CCC(O)O[C@]12OC` (some centres undefined) has an inhibition at 100 µM [3] of 40%, a CC50 [4] of 100 µM and an IC50 [5] of 175 µM. It also gave a CC50 [6] of 126 µM.
With `O=C1O[C@@H]2[C@@H](O)CO[C@]2(O)[C@@]1(O)C(C[N+](=O)[O-])c1ccc(Cl)cc1` (some centres undefined) the CC50 [4] was 5.6 µM, the IC50 [7] was 70 µM and the CC50 [6] was 7.9 µM.
